In one data set the test system is HIV-1/MN. Description: Anti HIV activity in PM-1 cells (P24 ELISA, MTT corrected). Type of data set: cell-based. To be noted: 1 μM; PM-1 cells infected with HIV-1/MN, 96 h, P24 antigen corrected by MTT. As for the experimental part: Human CD^4+ T cell line PM-1 used in the assay was cultured in RPMI-1640 medium containing 10% Fetal bovine serum, 2 g/L sodium bicarbonate, 100,000 units/L Pencillin-G and 100 mg/L streptomycin. Healthy PM-1 cells were plated on the first day in a 96 well plate at 2×10^6 cells per well. After 24 h HIV-1/MN was added to the culture and incubated for 2 h for infection. Cells were washed twice with PBS to remove the virus in the culture. Different concentrations of DRF compounds ranging from 10−^4 to 10^−8 M were added to the culture and incubated for 96 h. The viability of cells was then assessed by standard MTT assay and the viral antigen P24 levels were estimated by ELISA method. Based on the MTT assay values the P 24 antigen values were corrected.
All the samples were tested in triplicates and the average was used for calculations. AZT was used as standard compound for comparision.
Background: In an ELISA, binding on a coated surface is turned into a signal by an enzyme label.

The next data set has as its system MCF-7/ADR. The data set is described as follows: Sulforhodamine B growth inhibition, breast MCF-7/ADR. To be noted: 48 h, SRB, read-out: GROWTH INHIBITION (GI 50). Format: cell-based, human. As for the experimental part: (§1) Each test compound was screened against a battery of cell lines representing eight different types of cancers. In a typical procedure, 1×10^4 cells were seeded into each well of 96 well plate in 100 μL volume of RPMI 1640 medium containing antibiotics and 10% FCS.
(§2) The plates were incubated at 37° C. in presence of CO2. After 24 h, test compounds were evaluated at five 10 fold dilutions ranging from 100 to 0.01 μM. To each test well 100 μL of test compound solution was added and medium with vehicle was added to control wells and the plates were further incubated. After 48 h of incubation, plates were terminated by Sulforhodamine B method.
(§3) The optical density which is proportional to protein mass, is then read by automated spectrophotometric plate reader at a wavelength of 515 nm.

The test system of a further data set is MCF7. Description: Sulforhodamine B growth inhibition, breast MCF7. Format: cell-based, human. To be noted: 48 h, SRB, read-out: GROWTH INHIBITION (GI 50). As for the experimental part: as §1, §2, §3
A further data set has as its system U251. Description: Sulforhodamine B growth inhibition, CNS U251. Format: cell-based, human. To be noted: 48 h, SRB, read-out: GROWTH INHIBITION (GI 50). As for the experimental part: as §1, §2, §3
Another data set relates to SW-620. The data set is described as follows: Sulforhodamine B growth inhibition, colon SW-620. Type of data set: cell-based, human. To be noted: 48 h, SRB, read-out: GROWTH INHIBITION (GI 50). As for the experimental part:
as §1, §2, §3

In a further data set the test system is HT29. Description: Sulforhodamine B growth inhibition, colon HT29. Format: cell-based, human. To be noted: 48 h, SRB, read-out: GROWTH INHIBITION (GI 50). As for the experimental part:
as §1, §2, §3

A further data set has as its system H522. Description: Sulforhodamine B growth inhibition, lung H522. Format: cell-based, human. To be noted: 48 h, SRB, read-out: GROWTH INHIBITION (GI 50). As for the experimental part: as §1, §2, §3
The next data set relates to UACC62. The data set is described as follows: Sulforhodamine B growth inhibition, melanoma UACC62. To be noted: 48 h, SRB, read-out: GROWTH INHIBITION (GI 50). Type of data set: cell-based, human. As for the experimental part:
as §1, §2, §3

In a further data set the test system is SKOV-3. Description: Sulforhodamine B growth inhibition, ovarian SKOV-3. To be noted: 48 h, SRB, read-out: GROWTH INHIBITION (GI 50). Type of data set: cell-based, human. As to the method: as §1, §2, §3
For a further data set, the system named is PA1. Description: Sulforhodamine B growth inhibition, ovarian PA1. Format: cell-based, human. To be noted: 48 h, SRB, read-out: GROWTH INHIBITION (GI 50). As for the experimental part:
as §1, §2, §3

For another data set, the system named is DU145. Description: Sulforhodamine B growth inhibition, prostate DU145. Type of data set: cell-based, human. To be noted: 48 h, SRB, read-out: GROWTH INHIBITION (GI 50). As to the method: as §1, §2, §3
The next data set relates to PC-3. Description: Sulforhodamine B growth inhibition, prostate PC-3. Format: cell-based, human. To be noted: 48 h, SRB, read-out: GROWTH INHIBITION (GI 50). As for the experimental part: as §1, §2, §3
In the next data set the test system is A498. Description: Sulforhodamine B growth inhibition, renal A498. Type of data set: cell-based, human. To be noted: 48 h, SRB, read-out: GROWTH INHIBITION (GI 50). As for the experimental part: as §1, §2, §3
The test system of another data set is Human lymphocytes. Description: Lymphocyte proliferation (tritiated thymidine incorporation). Format: cell-based. To be noted: 1 μM; human lymphocytes with Phytohemagglutitin A. As to the method:
Human lymphocytes were isolated from whole blood by using Ficoll Hypaque Plus (Amersham). On day one, 1 million lymphocytes were seeded into each well of 96 well plate in 100 μL volume of RPMI 1640 medium containing 10% FCS and Phytohemagglutitin A at 1 μg/well concentration. Plates were incubated at 37° C. in CO2 incubator for 24 h. Test compounds at various concentrations were added to test wells and only medium with vehicle was added to control wells. After 48 h of incubation […] of tritiated thymidine was added to each well. After 24 h of thymidine addition the cells were harvested and the incorporated radioactivity was determined.
Stimulation Index (SI) was calculated using the formula, […]
(Uptake of a labelled nucleoside into DNA is a usual measure of proliferation.)

A further data set concerns C57BL/KsJ-db/db mice. Description: Blood sugar and triglycerides lowering in db/db mice. Type of data set: in vivo. To be noted: 100 mg/kg oral gavage daily for 6 days, plasma. The text has this:
Mutution in colonies of laboratory animals and different sensitivities to dietary regimens have made the development of animal models with non-insulin dependent diabetes and hyperlipidemia associated with obesity and insulin resistance possible. Genetic models such as db/db mice have been developed by the various laboratories for understanding the pathophysiology of disease and testing the efficacy of new antidiabetic compounds (Diabetes, (1983) 32: 830-838; Annu. Rep. Sankyo Res. Lab. (1994) 46:1-57). The homozygous animals, C57 BL/KsJ-db/db mice developed by Jackson Laboratory, US, are obese, hyperglycemic, hyperinsulinemic and insulin resistant (J. Clin, Invest., (1990) 85: 962-967), whereas heterozygous are lean and normoglycemic. […]
The random blood sugar and triglyceride levels were measured by collecting blood (100 μl) through orbital sinus, using heparinised capillary in tubes containing EDTA which was centrifuged to obtain plasma. The plasma glucose and triglyceride levels were measured spectrometrically, by glucose oxidase and glycerol-3-PO4 oxidase/peroxidase enzyme (Dr. Reddy's Lab. Diagnostic Division Kits, Hyderabad, India) methods respectively.
The blood sugar and triglycerides lowering activities of the test compound was calculated according to the formula: [formula]
Body weight of the animals were measured at the beginning and at the end of the study period.

Another data set concerns Swiss albino mice. The data set is described as follows: Plasma triglyceride and body weight reduction in Swiss albino mice. Format: in vivo. As for the experimental part: Male Swiss albino mice (SAM) were obtained from NIN and housed in DRF animal house. All these animals were maintained under 12 hour light and dark cycle at 25±1° C. Animals were given standard laboratory chow (NIN, Hyderabad, India) and water, ad libitum. SAM of 20-25 g body weight range (Oliver, P., Plancke, M. O., Marzin, D., Clavey, V., Sauzieres, J and Fruchart, J. C. Effects of fenofibrate, gemfibrozil and nicotinic acid on plasma lipoprotein levels in normal and hyperlipidemic mice. Atherosclerosis. 1988. 70: 107-114)
The test compounds were administered orally to Swiss albino mice at 30 to 500 mg/kg/day dose for 6 days. Control mice were treated with vehicle (Chremophore/DMSO/H2O; dose 10 ml/kg).
The blood samples were collected in fed state 1 hour after drug administration on 0 and 6 day of treatment. The blood was collected from the retro-orbital sinus through heparinised capillary in EDTA containing tubes. After centrifugation, plasma sample was separated for triglyceride (Wieland, 0. Methods of Enzymatic analysis, Bergerneyer, H. O., Ed., 1963. 211-214; Trinder, P. Ann. Clin. Biochem. 1969. 6: 24-27). Measurement of plasma triglycerides was done using commercial kits (Dr. Reddy's Diagnostic Division, Hyderabad, India).
The formula used to measure percent reduction in blood sugar/triglycerides is given above.

The next data set has as its system HIV-1 (EIB). To be noted: cited from earlier work.
In the next data set the test system is KB. To be noted: KB cells; cited from earlier work.
For data set [1], the system named is P388 lymphocytic leukemia. To be noted: P388 cells; cited from earlier work.

`Cc1cn([C@H]2C[C@H](N=[N+]=[N-])[C@@H](CO)O2)c(=O)[nH]c1=O` [AZT, reference compound]: the “Percentage Inhibition” value in the data set with HIV-1/MN is 72.47%.
Regarding `C=C1CC[C@@H]2[C@](C)(COC(C)=O)[C@H](OC(C)=O)CC[C@@]2(C)[C@@H]1C/C=C1/C(=O)OC[C@H]1OC(=O)C(OC(C)=O)C(NC(C)=O)c1ccccc1` (stereo partly shown) [Example 16, 3,19-Diacetyl-14-(2′-acetyl 3′-acetamido 3′-phenyl)propionyl andrographolide], the GI50 was found to be 5.5 µM with MCF-7/ADR; 5 µM in the data set with MCF7; 4 µM with U251; 6 µM with SW-620; 6.5 µM in the data set on HT29; 6 µM in the data set with H522. Also, the GI50 was found to be 3 µM in the data set on UACC62; 4 µM in the data set with SKOV-3; 2 µM with PA1; 6.5 µM with DU145; 6.5 µM with PC-3; 9 µM in the data set on A498. For the same molecule, the “Percentage Inhibition” value with HIV-1/MN is reported as 61.06%. For the same molecule, in the data set with Human lymphocytes, the “Stimulation Index (SI)” value is listed as 90. Further, the “Percentage reduction Glucose” value in the data set on C57BL/KsJ-db/db mice is recorded as 64%. In addition, the figures for the “Percentage reduction TG” value in the data set on C57BL/KsJ-db/db mice, with Swiss albino mice (100 mg/kg orally for 6 days) and in the data set on Swiss albino mice (500 mg/kg orally for 6 days) were 54%, 42% and 62%, respectively. Also, the results for the “Percentage reduction Body weight” value in the data set on Swiss albino mice (100 mg/kg orally for 6 days), with Swiss albino mice (250 mg/kg orally for 6 days) and in the data set on Swiss albino mice (500 mg/kg orally for 6 days) were 9%, 15% and 23%, respectively.
“dehydroandrographolide succinic acid monoester [DASM]”: in the data set on HIV-1 (EIB), the “minimal concentration inhibitory to HIV-1 (EIB)” value is 1.6 to 3.1 µg/mL.
Turning to `C=C1CC[C@@H]2[C@](C)(CO)[C@H](O)CC[C@@]2(C)[C@@H]1C/C=C1/C(=O)OC[C@H]1O` [Andrographolide], the cytotoxic activity entry (in the data set with KB; in data set [1]) was “potent cytotoxic activity” each time.

The values are drawn from US6486196B2, “Anticancer compounds: process for their preparation and pharmaceutical compositions containing them” (Dr. Reddy's Research Foundation, priority 2000, dated 2002).
